Article PMC13576449, “Small-Molecule Activators of PRMT1: Discovery, SAR Analyses, and Proapoptotic Effects in Pancreatic Cancer Cells” (Journal of Medicinal Chemistry, 2026)

Experiments:
PANC-1 xenografts = test: PDAC xenograft mouse model, tumor growth; assay type: in vivo; details: female athymic nude mice, intraperitoneal, 2 weeks; 150 mg/kg TR-07 daily, 10 mg/kg gemcitabine every second day; n = 5
[1] = test system: ADMA in PANC-1 xenograft tissues; test: Immunofluorescence staining of ADMA in xenograft tumor tissue; assay type: in vivo, mouse; details: after 2 weeks treatment, compared to PBS or gemcitabine alone
Method: 6 Effect of small-molecule modulators on gemcitabine-induced apoptosis and tumor growth of PDAC cells. […] After 2 h, gemcitabine (GEM) was added at increasing concentrations (10 and 25 nM) or not (−) for another incubation of 72 h. Subsequently, the luminescence-based caspase3/7 assay was performed. The activity of caspase 3/7 in treated cells was normalized to the activity measured in untreated cells (dark gray bar), which was set to 1 (mean SD, n = 6 for PANC-1 and n = 4 for PaTu8988T; *: p ≤ 0.05, **: p ≤ 0.01, ***: p ≤ 0.001, using the student t-test). […] After 24 h, gemcitabine (GEM, 1 μM) was added (+) or not (−) for another incubation of 48 h. Subsequently, the apoptotic cell fraction was quantified in % by flow cytometry using FITC-labeled Annexin V (AV) and propidium iodide (PI) staining (in B: mean ± SD, n = 6 for PANC-1 and n = 5 for PaTu8988T; **: p ≤ 0.01, ***: p ≤ 0.001, ****: p ≤ 0.0001, using the student t-test). […] Tumor volumes were measured every second day using a digital caliper. […]
For antigen retrieval, tissue sections were steam-heated for 35 min in citrate buffer (pH 6.0), cooled down to room temperature, and then washed in PBS. […] Fluorescence images were acquired using the Confocal Laser Scanning microscope Leica SP8i and analyzed with IMARIS 9.9.0 (Bitplane-Oxford Instruments, Abingdon, GB) using the Cell module.

CN(C)Cc1cccc(CN/C=C2\C(=O)NC(=O)c3ccccc32)c1.Cl [TR-07, (Z)-1-[3-({[(1,3-Dioxo-2,3-dihydroisoquinolin-4(1H)-lidene)methyl]amino}methyl)phenyl]-N,N-dimethylmethanaminium chloride]
tumor growth of PANC-1 xenografts (PANC-1 xenografts): significantly reduced the tumor growth compared to the control mice | mean intensity ADMA levels in PANC-1 xenografts (IF staining) [1]: elevated mean intensity ADMA levels
